Experimental data: BindingDB's records for doi:10.1016/j.bmcl.2004.03.067 (Pfizer, 2004)

What was measured:
[1] = Inhibition of Phosphodiesterase 5
[2] = Inhibition of Phosphodiesterase 5; remark: listed apart in the source

Compound | IC50 [1] [µM] | IC50 [2] [µM]
COc1cc2c3c(n1)C(c1ccccc1)=N[C@@H](NC(=O)c1cccnc1)C(=O)N3CC2 | > 100 | 
COc1cc2c3c(n1)C(c1ccccc1)=NCC(=O)N3CC2 [4-Methoxy-6-phenyl-1,2-dihydro-8H-5,7,9a-triaza-benzo[cd]azulen-9-one] | 91 | 
COc1cc2c3c(n1)C(c1ccccc1)=NC(NC(=O)c1cccnc1)C(=O)N3CC2 (centres undefined) [N-(4-methoxy-9-oxo-6-phenyl-1,2,8,9-tetrahydro-5,7,9a-triazabenzo[cd]azulen-8-yl)nicotinamide] | > 100 | 95
